Reference: patent US8450336B2, “Use of D-serine derivatives for the treatment of anxiety disorders” (priority 2006, dated 2013)
“And” between values parts separate entries of the source, which are not always exact repeats. Identical values can stand only once.

Key:
CD-1 mice [1] = assay: Marble Burying Assay; format: in vivo; settings: for Number of marbles buried: 22 marbles, 30 min, mean±SEM, at least 8 mice
Protocol: (§1) Male, experimentally naïve CD-1 mice of body weight range 25-35 g were used in these studies. Following a pretreatment with test drug or vehicle control the animals were singly placed within a Perspex chamber of dimension (48 cm×28 cm×20 cm; L×W×H) containing fresh sawdust bedding onto which 22 marbles were evenly spaced on the surface. After a 30 min period, the mice were removed and the number of marbles that were covered by at least ⅔rd by sawdust were counted as buried. Typically mice will bury a significant proportion of the marbles, probably to hide the potential threat posed by the marbles which represent a novel stimulus to the animal. […] One interpretation for this effect is that diazepam reduces the threat perceived to the animal by the close presence of the marbles (Broekkamp et al, 1986 Eur. J. Pharmacol. 126: 223-229; Nicolas et al, 2006 Eur. J. Pharmacol. 547; 106-115). In a separate group of sex, age and weight matched CD-1 mice, equivalent doses of test compound were evaluated on motor function using a fixed speed (16 r.p.m) rotorod assay. The best score from 3 attempts was recorded, with the maximum test duration of 60 s. Testing was conducted at 40 min post injection, i.e. approximate mid-point of the marble-burying assay.
Drug testing was run according to a between subjects design. […] The (S)-enantiomer of Lacosamide was ineffective in this assay.

Sprague-Dawley rats [2] = assay: Conditioned Emotional Response (CER) assay; format: in vivo; settings: for Total number lever press: 40 min test session; for Total number lever press / Suppression ratio (SR): mean±SEM; for Suppression ratio (SR): at least 10 rats, *p<0.05 vs vehicle; for Efficacy in the CER assay (effect on SR), in words: rat, in vivo; for Magnitude of the SR effect compared with diazepam: diazepam 2 mg/kg i.p
Protocol: Male, Sprague-Dawley rats of approximate body weight 350-450 g were placed on a restricted food diet (45 min free access per day) and trained over a 1-2 week period to press a lever for food reward (45 mg food pellet). […] Test session length was for a 40 min test period, and test sessions were run 5 days/week. Once stable response rates were attained, 2 periods of a 2 min light and tone cue (conditioning stimulus, CS) was introduced into the test session. The 2 min CS was terminated by a 0.5 s unavoidable footshock of 0.3-0.8 mA intensity (UCS). The first CS-UCS was at approximately 10 min (range 5-15 min) and the second CS-UCS pairing at approximately 30 min (range 25-35 min) within the test session. On drug test days, and occasional training days, footshock was not delivered. The number of lever presses recorded during the two 2 min CS periods (response A), and the number of lever presses recorded in the 2 min periods immediately prior to the two CS periods (response B) were measured and a suppression ratio (SR) was calculated according to the formula (A/A+B). Thus a SR of 0 reflects no responding during the CS periods, i.e. a complete suppression of lever pressing for food by the CS, and a SR of 0.5 reflects equivalent responding during both the CS and 2 min period prior to CS, i.e. no suppression of lever pressing for food by the CS. Thus in drug untreated animals, SR value was typically 0-0.1 and established anti-anxiety agents such as diazepam increased this value to 0.4-0.5 (for literature examples see Stanhope and Dourish (1996) Psychopharmacol. 128: 293-303; Mirza et al (2005) Psychopharmacol. 180: 159-168). In addition to SR, the total number of lever presses emitted by the animals over the 40 min test session was measured.
Drug testing was conducted according to a repeated measures design, with each animal receiving each dose of drug treatment or vehicle control in a balanced design. Typically drug testing was conducted on Tuesdays and Fridays, with the animals drug untreated but otherwise run for baseline purposes. In each experiment a standard dose of diazepam (2 mg/kg i.p) was included as a positive control.

CD-1 mice [3] = assay: Fixed speed (16 r.p.m) rotorod assay of motor function; format: in vivo; settings: median of at least 4 mice, maximum score=60 s, 40 min post injection
Protocol: as §1

Sprague-Dawley rats [4] = settings: drug untreated animals typically 0-0.1; literature examples; cited from earlier work
CD-1 mice [5] = settings: at doses with no obvious effect on general motor function; literature; cited from earlier work
[6] = dose 3 (mg/kg), i.p or oral route
[7] = dose 2 (2 mg/kg i.p, positive control), 2 mg/kg
[8] = dose 10 (mg/kg), i.p or oral route
[9] = dose 30 (mg/kg), i.p or oral route

| Structure (SMILES) | melting point [°C] | Efficacy in the marble burying assay, in words (CD-1 mice [1]; mouse, in vivo) | Total number lever press (Sprague-Dawley rats [2]; dose 30 (mg/kg)) | Suppression ratio (SR) (Sprague-Dawley rats [2]; dose 30 (mg/kg)) | Efficacy in the CER assay (effect on SR), in words (Sprague-Dawley rats [2]) | Number of marbles buried (CD-1 mice [1]; [6]) | Rotorod score (CD-1 mice [3]; dose 3) [s] | Number of marbles buried (CD-1 mice [1]; [8]) | Number of marbles buried (CD-1 mice [1]; [9]) | Magnitude of the SR effect compared with diazepam (Sprague-Dawley rats [2]) | Total number lever press (Sprague-Dawley rats [2]; dose 3 (mg/kg)) | Suppression ratio (SR) (Sprague-Dawley rats [2]; dose 3 (mg/kg)) | Total number lever press (Sprague-Dawley rats [2]; dose 10 (mg/kg)) | Suppression ratio (SR) (Sprague-Dawley rats [2]; dose 10 (mg/kg)) | Rotorod score (CD-1 mice [3]; dose 10) [s] | Rotorod score (CD-1 mice [3]; dose 30) [s] | further results |
| --- | --- | --- | --- | --- | --- | --- | --- | --- | --- | --- | --- | --- | --- | --- | --- | --- | --- |
| CC(=O)NC(COC(F)F)C(=O)NCc1ccccc1 (stereo not drawn) | 173.3 | – | – | – | – | – | – | – | – | – | – | – | – | – | – | – | – |
| COC[C@H](NC(C)=O)C(=O)NCc1ccccc1 (single isomer, unassigned) [(S)-enantiomer of Lacosamide, reference compound] | – | ineffective | 1403 ± 158 | 0.06 ± 0.03 | ineffective | – | – | – | – | – | – | – | – | – | – | – | – |
| CN1C(=O)CN=C(c2ccccc2)c2cc(Cl)ccc21 [Diazepam, reference compound] | – | produced a similar profile | – | – | – | 2.0 ± 0.8 | 40 | – | – | – | – | – | – | – | – | – | Number of marbles buried (CD-1 mice [1]; dose 0.3, i.p or oral route): 12.6 ± 1.4; Number of marbles buried (CD-1 mice [1]; dose 1, i.p or oral route): 9.4 ± 1.7; Number of marbles buried (CD-1 mice [1]; dose 2, i.p or oral route): 2.2 ± 1.2; Total number lever press (Sprague-Dawley rats [2]; [7]): 899 ± 146 and 1015 ± 155 and 1151 ± 138 and 1239 ± 183; Suppression ratio (SR) (Sprague-Dawley rats [2]; [7]): 0.39 ± 0.04* and 0.44 ± 0.03* and 0.32 ± 0.07*; Rotorod score (CD-1 mice [3]; dose 0.3): 60 s; Rotorod score (CD-1 mice [3]; dose 1): 60 s; SR value typically reached with established anti-anxiety agents (Sprague-Dawley rats [4]): 0.4-0.5; Effect of anti-anxiety drugs on marbles buried by mice, in words (CD-1 mice [5]): reduce the number of marbles buried |
| CC(=O)N[C@H](COC(F)F)C(=O)NCc1ccccc1 [Example 19.1, (2R)-2-(Acetylamino)-N-benzyl-3-(difluoromethoxy)propanamide] | 186.9 | active in decreasing marble burying in a dose-related manner | 724 ± 135 | 0.38 ± 0.04* | active in increasing the SR in a dose-related manner | 17.0 ± 1.1 | 60 | 9.7 ± 2.3 | 2.3 ± 2.0 | equivalent to diazepam | 1169 ± 145 | 0.16 ± 0.03 | 1093 ± 169 | 0.15 ± 0.05 | 60 | 13 | – |
| CC(=O)N[C@H](COC(F)F)C(=O)NCc1ccc(F)cc1 [Example 20.1, (2R)-2-(Acetylamino)-3-(difluoromethoxy)-N-(4-fluorobenzyl)propanamide] | 162.7 | active in decreasing marble burying in a dose-related manner | 587 ± 84 | 0.43 ± 0.05* | active in increasing the SR in a dose-related manner | 15.0 ± 1.2 | 60 | 14.9 ± 0.9 | 10.3 ± 1.5 | equivalent to diazepam | 1188 ± 95 | 0.17 ± 0.06 | 1170 ± 98 | 0.28 ± 0.07* | 60 | 60 | Total number lever press (Sprague-Dawley rats [2]; dose 20 (mg/kg)): 849 ± 78; Suppression ratio (SR) (Sprague-Dawley rats [2]; dose 20 (mg/kg)): 0.33 ± 0.06* |
| CC(=O)N[C@H](COC(F)F)C(=O)NCc1ccc(Cl)cc1 [Example 23.1, (2R)-2-(acetylamino)-N-(4-chlorobenzyl)-3-(difluoromethoxy)propanamide] | – | active in decreasing marble burying in a dose-related manner | 578 ± 79 | 0.26 ± 0.04* | active in increasing the SR in a dose-related manner | 15.8 ± 0.8 | 60 | 12.3 ± 1.2 | 2.0 ± 0.7 | equivalent to diazepam | 1091 ± 169 | 0.09 ± 0.04 | 1034 ± 131 | 0.17 ± 0.04* | 60 | 60 | – |
| COC[C@@H](NC(C)=O)C(=O)NCc1ccccc1 [Lacosamide, (+)-(2R)-2-(acetylamino)-N-benzyl-3-methoxypropanamide, reference compound] | – | – | 727 ± 123 | 0.36 ± 0.07* | – | 16.8 ± 0.8 | 60 | 18.0 ± 0.7 | 12.4 ± 1.4 | equivalent to diazepam | 1166 ± 185 | 0.16 ± 0.07 | 1121 ± 138 | 0.18 ± 0.08 | 60 | 60 | Efficacy in the marble burying assay, in words (CD-1 mice [1]; oral doses of 3-30 mg/kg, compared to vehicle pretreated controls): significantly reducing the number of marbles buried; Efficacy in the CER assay (effect on SR value), in words (Sprague-Dawley rats [2]; doses 3-30 mg/kg i.p.): significantly increasing the SR value |
